This series is described as follows: gradient 5% acetonitrile 3 min, to 50% in 2 min, to 85% in 15 min, held 3 min, 100 µL/min. Conditions: column: Zorbax Extend-C18 2.1 x 50 mm; eluents: water / acetonitrile, 0.1% formic acid. The gist of the method: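 Retention time was recorded from adduct peaks, which were picked computationally and each inspected manually. Pure standards ran in mixtures of ~100 molecules on HPLC coupled to a quadrupole time-of-flight mass spectrometer, in positive and negative ionization mode, through a Zorbax Extend-C18 column (2.1 × 50 mm, 1.8 μm) at 100 μL/min. Eluents were water and acetonitrile, each with 0.1% formic acid.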
As for `Cc1cc(=O)n(CC(=O)N2CCc3ccccc32)c(N2CCOCC2)n1`, the RP-LC retention time was determined as 667 s. Next, `Cc1ccc2c(c1)N(Cc1ccccc1)N=C(C(=O)N1CCC(C)CC1)S2(=O)=O`: 1080 s; `Cc1ccc(S(=O)(=O)C2=C(O)C(=O)N(Cc3ccco3)C2c2ccc(Cl)cc2)cc1` (stereo not drawn): 982 s; `CCCn1cc(CCNS(=O)(=O)CCC)c2cccnc21`: 720 s. In turn, `COc1ccc(C(O)CN2CCN(c3ccc(F)cc3)CC2)cc1OC` (stereo not drawn) displayed an RP-LC retention time of 636 s. In turn, `CCOC(=O)CNC(=O)N1CCCC1c1ccccc1C` (stereo not drawn) yielded an RP-LC retention time of 768 s. Molecule `COc1cccc(-c2cc3c(=O)n(CC(O)c4cccc(C#N)c4)ccn3n2)c1` (stereo not drawn) yielded an RP-LC retention time of 796 s. In turn, `COc1ccc2[nH]c3c(c2c1)CCNC31CCN(S(=O)(=O)c2c(C)nn(C)c2C)CC1` gave an RP-LC retention time of 641 s.

`Cc1ccc(-n2c(C)c(C)c3c(=O)n(CC(=O)N(C)Cc4ccco4)cnc32)cc1` had an RP-LC retention time of 907 s.

As to `COCC1CN(C(=O)c2ccc3cc[nH]c3c2)CC12CCOCC2` (stereo not drawn), the RP-LC retention time is 680 s. Next, `Cc1ccc(-n2c(=O)c3sccc3n(Cc3nc(-c4ccc(Cl)c(F)c4)no3)c2=O)cc1`: 1150 s; `Cc1ccsc1C(=O)Nc1cccn2c(C)nnc12`: 670 s. As for `COCCn1cc(C(=O)Nc2ccc(F)cc2F)c2nn(-c3ccccc3)c(=O)c-2c1`, the RP-LC retention time stood at 1010 s. Next, `O=C(Cn1nc2c3sc(N4CCCCC4)nc3ncn2c1=O)Nc1ccccc1`: 768 s. Then `Cc1ccsc1C(=O)Nc1ccc(-c2nnc3n2CCCC3)cc1`, with 666 s. Take `Cc1csc(-c2ccc(N3CCN(C(=O)c4cccc(F)c4)CC3)nc2)n1`: the RP-LC retention time came out at 822 s.

Regarding `CCCCCCC(=O)Nc1nc(-c2ccc(Cl)cc2)cs1`, the RP-LC retention time amounted to 1270 s.

In turn, `CCc1nc(-c2cc(S(=O)(=O)NCC(=O)N3CCOCC3)c(C)s2)no1` gave an RP-LC retention time of 753 s. Then `Cc1noc(-c2cccn2C)n1`, with 744 s. With `O=C(c1ccc(F)cc1Cl)N1CCN(C(=O)c2nnn3c2COC(c2ccccc2)C3)CC1` (stereo not drawn), the RP-LC retention time was determined as 887 s. Molecule `COc1ccc(Cl)cc1C(=O)N1CCN=C1SCc1cccnc1` registered an RP-LC retention time of 578 s.

`Cc1ccc(NC(=O)Cn2cnc3nc(N4CCC(C(=O)NC5CC5)CC4)sc3c2=O)cc1` displayed an RP-LC retention time of 674 s. Then `Cc1ccc2nc(C(=O)N3CCN(c4cccc(C)c4C)CC3)cn2c1`, with 804 s; and `O=C(NCc1csc(-c2cccs2)n1)C1CCN(S(=O)(=O)c2ccccc2F)CC1`, with 860 s. As for `COc1ccc(CCNC(=O)c2ccc(-n3nc(C)cc3C)nc2)cc1OC`, the RP-LC retention time amounted to 758 s. Then `Cc1ccc(-c2noc(-c3nnn(Cc4nc(-c5cccc(Cl)c5)oc4C)c3C)n2)cc1`, with 908 s.

Consider `Cc1nc2ccn(Cc3cccnc3)c(=O)c2cc1C(=O)NCCC(C)C`, for which the RP-LC retention time was 605 s.

Regarding `O=C(Cn1c(=O)cc(-c2nc(C3CC3)no2)c2ccccc21)Nc1ccc(F)cc1`, the RP-LC retention time is 616 s.

Take `Cc1cnc(-c2ccccc2)n1C1CN(S(=O)(=O)c2cccc(F)c2)C1`: the RP-LC retention time stood at 670 s.

With `COc1ccc(OC)c(CCNC(=O)c2c(N3CCCC3=O)c3cc(F)ccc3n2C)c1`, the RP-LC retention time amounted to 919 s.

Regarding `CCn1ccc2c(cc(C(=O)Nc3cc(Cl)ccc3OC)n2C)c1=O`, the RP-LC retention time stood at 1150 s.

With `CC1Oc2ccc(S(=O)(=O)N3CCC(C(=O)NCc4ccc(F)cc4)CC3)cc2NC1=O` (stereo not drawn), the RP-LC retention time is 812 s. As to `CCCn1cc(C(=O)Nc2cccc(F)c2)c(S(=O)(=O)N2CCSCC2)n1`, the RP-LC retention time stood at 1070 s.

Source of the values: the METLIN SMRT retention time set (Domingo-Almenara et al. 2019).
